The supplement of paper PMC10307832

Experiments:
Experiment in all cases: relative viability (nuclei count vs DMSO), 5 days (fraction); higher = more cells survive
Zebularine + Alpelisib = compound: O=c1ncccn1[C@@H]1O[C@H](CO)[C@@H](O)[C@H]1O [Zebularine] + Cc1nc(NC(=O)N2CCC[C@H]2C(N)=O)sc1-c1ccnc(C(C)(C)C(F)(F)F)c1 [Alpelisib] (partner 2 µM)
Method in brief: (§1)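 Relative viability equals treated-well nuclei counts divided by vehicle-well nuclei counts. Counts came from 4× images of lung cancer cell lines grown in 1536-well plates for 5 days after pin-tool dosing on the day after seeding. Dosing used one drug alone or a fixed anchor-drug dose plus five library-drug doses (not always all listed) in √10 steps, and values are medians of duplicate plates.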

Zebularine + Phenformin = compound: O=c1ncccn1[C@@H]1O[C@H](CO)[C@@H](O)[C@H]1O [Zebularine] + N=C(N)NC(=N)NCCc1ccccc1 [Phenformin] (partner 250 µM)
Method in brief: as §1

Zebularine + Palbociclib = compound: O=c1ncccn1[C@@H]1O[C@H](CO)[C@@H](O)[C@H]1O [Zebularine] + CC(=O)c1c(C)c2cnc(Nc3ccc(N4CCNCC4)cn3)nc2n(C2CCCC2)c1=O [Palbociclib] (partner 0.5 µM)
Method in brief: as §1

Zebularine + Tozasertib = compound: O=c1ncccn1[C@@H]1O[C@H](CO)[C@@H](O)[C@H]1O [Zebularine] + Cc1cc(Nc2cc(N3CCN(C)CC3)nc(Sc3ccc(NC(=O)C4CC4)cc3)n2)n[nH]1 [Tozasertib] (partner 0.1 µM)
Method in brief: as §1

Cell Line	relative viability (Zebularine + Alpelisib; first compound 1 µM)	relative viability (Zebularine + Alpelisib; first compound 3.162 µM)	relative viability (Zebularine + Alpelisib; first compound 10 µM)	relative viability (Zebularine + Alpelisib; first compound 31.62 µM)	relative viability (Zebularine + Alpelisib; first compound 100 µM)	relative viability (Zebularine + Phenformin; first compound 1 µM)	relative viability (Zebularine + Phenformin; first compound 3.162 µM)	relative viability (Zebularine + Phenformin; first compound 10 µM)	relative viability (Zebularine + Phenformin; first compound 31.62 µM)	relative viability (Zebularine + Phenformin; first compound 100 µM)	relative viability (Zebularine + Palbociclib; first compound 1 µM)	relative viability (Zebularine + Palbociclib; first compound 3.162 µM)	relative viability (Zebularine + Palbociclib; first compound 31.62 µM)	relative viability (Zebularine + Palbociclib; first compound 100 µM)	relative viability (Zebularine + Tozasertib; first compound 1 µM)	relative viability (Zebularine + Tozasertib; first compound 3.162 µM)	relative viability (Zebularine + Tozasertib; first compound 10 µM)	relative viability (Zebularine + Tozasertib; first compound 31.62 µM)	relative viability (Zebularine + Tozasertib; first compound 100 µM)	relative viability (Zebularine + Palbociclib; first compound 10 µM)
EBC-1	0.899	0.832	0.711	1.02	0.857	–	–	–	–	–	–	–	–	–	–	–	–	–	–	–
EKVX	0.958	0.867	–	0.963	0.802	0.238	0.248	0.218	0.238	0.251	0.692	0.398	0.343	0.413	0.44	0.409	0.3	0.374	0.335	–
EMC-BAC-2	0.799	0.583	0.456	0.878	0.773	0.656	0.569	0.334	0.662	0.516	0.545	0.507	0.6	0.539	0.326	0.313	0.266	0.28	0.313	0.431
EPLC-272H	0.975	–	–	0.828	0.776	0.272	0.286	0.227	0.255	0.238	0.375	–	0.324	0.344	0.222	0.179	0.156	0.317	0.256	0.326
H3255	0.664	0.734	0.422	0.716	0.673	0.34	0.369	0.361	0.401	0.353	0.3	0.288	0.314	0.321	0.542	0.61	0.271	0.106	0.627	0.336
HARA	1.01	0.804	–	0.818	0.572	0.506	–	–	0.436	0.272	0.242	0.279	0.292	0.235	0.105	–	–	0.0886	0.0769	–
HCC-15	1.01	0.887	0.596	0.654	0.248	0.532	0.496	0.247	0.417	0.308	0.887	0.757	0.506	0.3	0.308	0.414	0.339	0.386	0.179	0.521
HCC-44	0.818	0.938	0.463	0.639	0.265	0.255	0.212	0.145	0.144	0.157	0.945	0.998	1.16	0.5	1.14	1.05	0.82	0.418	0.361	1.07
HCC-78	0.358	0.155	0.104	0.326	0.292	0.678	0.728	0.496	0.74	0.387	0.577	0.465	0.472	0.449	0.423	0.429	0.219	0.278	0.259	0.34
